Numbering of substitutions follows the chain as printed. Residues, ends and D or L forms follow the SMILES beside them. *: point of attachment. X1 = CN(CCCC(=O)NCc1ccc(COc2nc(N)nc3[nH]c(CCCNC(=O)CN4C(=O)C[C@H](*)C4=O)nc23)cc1)C(=O)c1ccccc1-c1c2ccc(=N)c(S(=O)(=O)O)c-2oc2c(S(=O)(=O)O)c(N)ccc12
Tests used:
AGT21 (AGT mutant) = target: T1, AGT21 (AGT mutant) (Homo sapiens, UniProt P16455, A127T/C150N/C62A/K125A/N157G/Q115S/Q116H/R128A/R135S/S151I/S152N/S159E); experiment: Fluorescence-appearance assay and reactivity comparisons; format: biochemical; conditions: for reaction rate relative to the compound unsubstituted at C^8/N^9 / reaction rate relative to the corresponding N^9-substituted compound: AGT21; for reaction rate relative to the compound unsubstituted at C^8/N^9: comparator BG-TMR, BG-Atto488 or BG-FL; for reaction rate relative to the corresponding N^9-substituted compound: comparator compound 35, 27 or 29
T1 construct: and truncation at 182 is prepared according to the same method; GST (N); made in house; host or cells: E. coli BL21
T1 sequence (P16455 1-182 C62A/Q115S/Q116H/K125A/A127T/R128A/R135S/C150N/S151I/S152N/N157G/S159E): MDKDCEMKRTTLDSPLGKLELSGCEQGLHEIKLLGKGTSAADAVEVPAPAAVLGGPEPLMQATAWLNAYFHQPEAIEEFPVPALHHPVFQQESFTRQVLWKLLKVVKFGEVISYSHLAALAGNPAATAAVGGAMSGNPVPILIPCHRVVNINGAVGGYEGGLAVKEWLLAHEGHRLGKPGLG
Procedure: A third AGT mutant (“AGT21”) related to AGTM and containing the mutations Cys62Ala, Gln115Ser, Gln116His, Lys125Ala, Ala127Thr, Arg128Ala, Arg135Ser, Cys150Asn, Ser15111e, Ser152Asn, Asn157Gly, Ser159G1u, and truncation at 182 is prepared according to the same method.
(§1) In a further assay, purified protein of AGT mutants AGTM and AGT21 (Example 47) at a protein concentration of 10 μM are incubated with 100 nM N-[4-(2-Amino-9-(3-QSY9-aminopropyl)-purin-6-yloxymethyl)-benzyl]-tetramethylrhodamine-5(6)-carboxamide (35, N^9-QSY9-BG-TMR, Example 19) in a buffer containing 100 mM NaCl, 50 mM Tris, pH 8.0, 0.1% Tween, 1 mM DTT, at room temperature. The fluorescence intensity (531 nm excitation/595 nm emission) is followed using a Victor2 microplate reader (Perkin Elmer).
(§2) Further reactivity comparisons gave the following results: […]

AGTM (AGT mutant) = target: T2, AGTM (AGT mutant) (Homo sapiens, UniProt P16455, A127T/C150N/C62A/G131K/G132T/K125A/M134L/N157G/Q115S/Q116H/R128A/R135S/S151I/S152N/S159E); experiment: as above; format: biochemical; conditions: for reaction rate relative to the compound unsubstituted at C^8/N^9 / reaction rate relative to the corresponding N^9-substituted compound: AGTM; for reaction rate relative to the compound unsubstituted at C^8/N^9: comparator BG-TMR, BG-Atto488 or BG-FL; for reaction rate relative to the corresponding N^9-substituted compound: comparator compound 35, 27 or 29
T2 construct: a truncation after codon 182 into the mutant AGT gene; GST (N); made in house; host or cells: E. coli BL21
T2 sequence (P16455 1-182 C62A/Q115S/Q116H/K125A/A127T/R128A/G131K/G132T/M134L/R135S/C150N/S151I/S152N/N157G/S159E): T1 sequence (P16455 1-182 C62A/Q115S/Q116H/K125A/A127T/R128A/R135S/C150N/S151I/S152N/N157G/S159E) with G131K, G132T, M134L
Text: A second AGT mutant (“AGTM”) containing the mutations Cys62Ala, Gln115Ser, Gln116His, Lys125Ala, Ala127Thr, Arg128Ala, Gly131Lys, Gly132Thr, Met134Leu, Arg135Ser, Cys150Asn, Ser15111e, Ser152Asn, Asn157Gly, Ser159G1u, and truncation at 182 is derived from the mentioned above AGT mutant by subsequent introduction of further mutations and a truncation after codon 182 into the mutant AGT gene. Subsequent PCR amplifications gives rise to the further mutated gene that is subcloned into pGEX2T as described for the first mutant. The GST-fusion protein is expressed and purified as well.
as §1, with “The fluorescence intensity (531 nm excitation/595 nm emission) is followed using a Victor2 microplate reader (Perkin Elmer).” left out
as §2

wild type hAGT = target: T3, wild type hAGT (Homo sapiens, UniProt P16455); conditions: known values; cited from earlier work
T3 sequence (P16455 1-207): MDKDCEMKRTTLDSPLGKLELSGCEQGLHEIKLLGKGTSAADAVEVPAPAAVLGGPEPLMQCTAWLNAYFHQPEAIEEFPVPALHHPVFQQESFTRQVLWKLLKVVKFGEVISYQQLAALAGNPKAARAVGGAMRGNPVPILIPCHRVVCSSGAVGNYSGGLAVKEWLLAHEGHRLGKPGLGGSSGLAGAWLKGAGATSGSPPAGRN

[1] = target: T4, AGT26-CaaX fusion protein in CHO cells deficient in endogenous wildtype AGT (Homo sapiens, UniProt P16455, A127T/C150S/C62A/G131K/G132T/K125A/M134L/N157G/R128A/R135S/S159E); format: cell-based
T4 construct: and truncation at 182 is also prepared according to the same method; expressed in transfected cells
T4 sequence (P16455 1-182 C62A/K125A/A127T/R128A/G131K/G132T/M134L/R135S/C150S/N157G/S159E): T1 sequence (P16455 1-182 C62A/Q115S/Q116H/K125A/A127T/R128A/R135S/C150N/S151I/S152N/N157G/S159E) with S115Q, H116Q, G131K, G132T, M134L, N150S, I151S, N152S
Procedure: A fourth AGT mutant (“AGT26”) related to AGTM and containing the mutations Cys62Ala, Lys125Ala, Ala127Thr, Arg128Ala, Gly131Lys, Gly132Thr, Met134Leu, Arg135Ser, Cys150Ser, Asn157Gly, Ser159G1u, and truncation at 182 is also prepared according to the same method.
A vector for a fusion of AGT26 and the CaaX-farnesylation signal is transfected into CHO cells deficient in endogenous wildtype AGT. Stable transfectants are selected under geneticine treatment. For that purpose the gene of AGT26 is cloned into pCMV-Script (Stratagene) followed on its C-terminus by the CaaX-box sequence encoded in the pECP-F (Clontech). The final protein sequence (position 690-1271) yields a single polypeptide with 194 amino acids. […] All imaging is done with an inverted Zeiss fluorescence microscope Axiovert 40 CFL with filter sets for tetramethylrhodamine and for fluorescein.

[2] = fluorescence 490 nm excitation / 535 nm emission
[3] = 10 μM protein, 100 nM substrate, over 1 hour at 25° C.

Compound	reaction rate relative to the compound unsubstituted at C^8/N^9 (AGT21 (AGT mutant))	reaction rate relative to the corresponding N^9-substituted compound (AGT21 (AGT mutant))	reaction rate relative to the compound unsubstituted at C^8/N^9 (AGTM (AGT mutant))	reaction rate relative to the corresponding N^9-substituted compound (AGTM (AGT mutant))	other results
N-[4-(2-Amino-8-(3-(4-[4-dimethylamino-phenyl]-azo-benzoyl)-amino-propyl)-9H-purin-6-yloxymethyl)-benzyl]-fluoresceine-5(6)-carboxamide [compound 44]	two times faster	at least four times faster	two times faster	at least ten times faster	–
Nc1nc(OCc2ccccc2)c2ncn(C3C[C@H](O)[C@@H](CO)O3)c2n1 (stereo partly shown) [N^9-desoxyribosyl-O^6-benzylguanine]	–	–	–	–	rate constant of the reaction with wild type hAGT (wild type hAGT): 340 s^−1M^−1
CN(CCCC(=O)NCc1ccc(COc2nc(N)nc3[nH]c(CCCNC(=O)c4ccc(/N=N/c5ccc(N(C)C)cc5)cc4)nc23)cc1)C(=O)c1ccccc1-c1c2ccc(=N)c(S(=O)(=O)O)c-2oc2c(S(=O)(=O)O)c(N)ccc12 [compound 45, N-[4-(2-Amino-8-(3-(4-[4-dimethylamino-phenyl]-azo-benzoyl)-aminopropyl)-9H-purin-6-yloxymethyl)-benzyl]-ATTO488-amide]	two times faster	at least four times faster	three times faster	at least fifteen times faster	increase in reactivity compared to BG-Atto488 (AGT21 (AGT mutant); [2]): twofold; increased reactivity compared to BG-Atto488 (AGTM (AGT mutant); [2]): 3 fold
N-[4-(2-Amino-9-(3-QSY9-aminopropyl)-purin-6-yloxymethyl)-benzyl]-tetramethylrhodamine-5(6)-carboxamide [compound 35]	–	–	–	–	increase of tetramethylrhodamine fluorescence (AGT21 (AGT mutant); [3]): about 80%; increase of tetramethylrhodamine fluorescence (AGTM (AGT mutant); [3]): less than five percent
N-[4-(2-Amino-8-(3-QSY9-aminopropyl)-9H-purin-6-yloxymethyl)-benzyl]-tetramethylrhodamine-5(6)-carboxamide [compound 48]	two times faster	at least four times faster	two times faster	at least ten times faster	–
CN(CCCC(=O)NCc1ccc(COc2nc(N)nc3[nH]c(CCCNC(=O)CN4C(=O)C[C@H](SC[C@H](NC(=O)[C@H](CCCNC(=N)N)NC(=O)[C@H](CCCNC(=N)N)NC(=O)[C@H](CCCNC(=N)N)NC(=O)[C@H](CCCNC(=N)N)NC(=O)[C@H](CCCNC(=N)N)NC(=O)[C@H](CCCNC(=N)N)NC(=O)[C@H](CCCNC(=N)N)NC(=O)[C@H](CCCNC(=N)N)NC(=O)[C@H](CCCNC(=N)N)NC(=O)[C@@H](N)Cc5ccc(O)cc5)C(=O)O)C4=O)nc23)cc1)C(=O)c1ccccc1-c1c2ccc(=N)c(S(=O)(=O)O)c-2oc2c(S(=O)(=O)O)c(N)ccc12 [compound 60, Conjugate O^6-ATT0488-C^8-TyrArg9Cys] (H-YRRRRRRRRRC(X1)-OH; N-terminus and C-terminus assumed)	–	–	–	–	cell membrane permeability [1]: increased permeability
O^6-tetramethylrhodamine-benzylguanine [BG-TMR, reference compound]	–	–	–	–	labeling of cells (fluorescence microscopy) ([1]; 5 μM, 30 min, CHO cells with AGT26-CaaX): clear signal at the cell membrane

— patent US8163479B2, “Specific substrates for O6-alkylguanine-DNA alkyltransferase” (Ecole Polytechnique Federale de Lausanne, priority 2004, dated 2012)
